Laboratory results: ChEMBL document CHEMBL1201862, “PubChem BioAssay data set” (2004)
Activity calls are given as the source filed them.

Columns and labels:
[1] = biological target: Heat shock protein HSP 90-alpha (Homo sapiens, UniProt P07900); type: functional, organism-based
Cytochrome P450 3A4 = Cytochrome P450 3A4 (Homo sapiens, UniProt P08684);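 also: CYP3A4 tested as one member of a cytochrome P450 panel screen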
Cytochrome P450 2C9 = Cytochrome P450 2C9 (Homo sapiens, UniProt P11712)
Coagulation factor XII = biological target: T1, Coagulation factor XII (Homo sapiens, UniProt P00748); type: functional;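 also: activated factor XIIa alpha cleaving a fluorogenic AMC peptide substrate; inhibitor potency from loss of enzyme activity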
T1 sequence (P00748 whole entry): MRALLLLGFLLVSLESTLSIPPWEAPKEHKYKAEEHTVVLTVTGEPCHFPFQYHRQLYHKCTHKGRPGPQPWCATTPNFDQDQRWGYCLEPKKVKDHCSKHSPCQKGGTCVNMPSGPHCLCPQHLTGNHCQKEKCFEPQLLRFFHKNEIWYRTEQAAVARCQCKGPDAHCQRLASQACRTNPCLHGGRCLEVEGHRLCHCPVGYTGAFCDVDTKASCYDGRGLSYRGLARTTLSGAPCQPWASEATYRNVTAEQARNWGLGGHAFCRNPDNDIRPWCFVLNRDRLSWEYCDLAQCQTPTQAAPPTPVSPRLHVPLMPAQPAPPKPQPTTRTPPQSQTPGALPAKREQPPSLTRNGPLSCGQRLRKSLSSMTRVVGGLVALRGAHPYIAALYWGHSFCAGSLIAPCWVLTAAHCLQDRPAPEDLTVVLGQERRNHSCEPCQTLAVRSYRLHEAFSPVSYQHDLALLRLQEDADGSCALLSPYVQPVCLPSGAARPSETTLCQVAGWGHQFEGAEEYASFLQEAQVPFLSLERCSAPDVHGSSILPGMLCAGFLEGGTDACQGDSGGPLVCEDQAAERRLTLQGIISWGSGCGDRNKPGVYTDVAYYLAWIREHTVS

[2] = OVCAR8 cell viability loss – plate reader, dry powder samples, PAX8 project, dose response (AID 743197); type: functional, cell-based; details: OVCAR-8
Paired box protein Pax-8 = Paired box protein Pax-8 (Homo sapiens, UniProt Q06710); assay: PAX8 transcriptional activity inhibition in RMG-I – RMG-I cells, luciferase, cherry-pick, dose response (AID 687027); type: functional, cell-based;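 also: luciferase reporter driven by Pax8 target thyroperoxidase promoter measured by SteadyGlo luminescence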
Mu-type opioid receptor = Mu-type opioid receptor (Homo sapiens, UniProt P35372); type: functional, cell-based;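 also: U2OS cells with beta-arrestin recruitment to OPRM1 by beta-gal complementation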
[3] = biological target: 5-hydroxytryptamine receptor 2A (Mus musculus, UniProt P35363); type: functional, cell-based;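 also: CHO-K1 cells with tagged receptor and beta-arrestin; agonist potency measured as compound-induced activation of the receptor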
[4] = non-specific 3'UTR reporter inhibition in Clone20-Shn3RL – cell-based, Renilla luciferase, cherry-picked, counter-screen for Shn3 inhibitor project, dose response (AID 624133); type: functional
[5] = reduction of Shn3 3'UTR-driven luciferase in osteoblasts – cell-based, Clone20 osteoblasts, firefly luciferase, cherry-picked, dose response (AID 624132); type: functional;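 also: firefly luciferase luminescence from reporter carrying the Shn3 3'UTR in osteoblasts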
[6] = loss of viability in HepG2 cells – cell-based, CellTiter-Glo, cherry-picked, cytotoxicity control for Shn3 inhibitor project, dose response (AID 624134); type: functional
[7] = biological target: FAD-linked sulfhydryl oxidase ALR (Homo sapiens, UniProt P55789); assay: ALR-catalysed DTT oxidation blockers – biochemical, H2O2 detection, luminescence, cherry-pick, dose response (AID 493248)
[8] = HGIII-sPLA2 enzyme inhibition potency – biochemical, QFRET, IC50, dose response (AID 743457);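 also: green fluorescence rise as the enzyme cleaves BODIPY PC-A2 in liposomes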

Chain of Mu-type opioid receptor (P35372 whole entry): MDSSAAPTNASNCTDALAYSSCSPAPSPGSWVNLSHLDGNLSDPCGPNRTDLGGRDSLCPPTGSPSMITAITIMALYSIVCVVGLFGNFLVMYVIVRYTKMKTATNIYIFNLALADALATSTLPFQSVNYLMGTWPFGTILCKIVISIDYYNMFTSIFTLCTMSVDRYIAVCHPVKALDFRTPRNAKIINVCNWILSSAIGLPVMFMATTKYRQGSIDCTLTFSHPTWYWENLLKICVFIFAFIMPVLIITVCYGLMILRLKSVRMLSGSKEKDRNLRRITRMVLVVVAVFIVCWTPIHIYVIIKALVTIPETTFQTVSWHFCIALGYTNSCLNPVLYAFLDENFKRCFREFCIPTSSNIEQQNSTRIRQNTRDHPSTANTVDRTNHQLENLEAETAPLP
Chain of 5-hydroxytryptamine receptor 2A (P35363 whole entry): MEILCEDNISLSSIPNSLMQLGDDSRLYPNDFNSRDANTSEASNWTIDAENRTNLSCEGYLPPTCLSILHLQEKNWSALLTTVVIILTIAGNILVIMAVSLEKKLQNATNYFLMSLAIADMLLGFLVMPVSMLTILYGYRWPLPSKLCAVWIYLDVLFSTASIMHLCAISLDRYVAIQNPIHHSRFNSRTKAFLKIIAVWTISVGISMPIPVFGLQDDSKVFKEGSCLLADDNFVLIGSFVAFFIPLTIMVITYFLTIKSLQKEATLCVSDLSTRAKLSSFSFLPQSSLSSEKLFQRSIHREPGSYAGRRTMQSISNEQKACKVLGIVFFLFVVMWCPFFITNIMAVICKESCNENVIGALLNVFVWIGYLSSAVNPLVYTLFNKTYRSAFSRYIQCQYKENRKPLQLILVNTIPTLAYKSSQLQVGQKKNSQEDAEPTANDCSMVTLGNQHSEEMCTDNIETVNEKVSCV
Chain of Paired box protein Pax-8 (Q06710 whole entry): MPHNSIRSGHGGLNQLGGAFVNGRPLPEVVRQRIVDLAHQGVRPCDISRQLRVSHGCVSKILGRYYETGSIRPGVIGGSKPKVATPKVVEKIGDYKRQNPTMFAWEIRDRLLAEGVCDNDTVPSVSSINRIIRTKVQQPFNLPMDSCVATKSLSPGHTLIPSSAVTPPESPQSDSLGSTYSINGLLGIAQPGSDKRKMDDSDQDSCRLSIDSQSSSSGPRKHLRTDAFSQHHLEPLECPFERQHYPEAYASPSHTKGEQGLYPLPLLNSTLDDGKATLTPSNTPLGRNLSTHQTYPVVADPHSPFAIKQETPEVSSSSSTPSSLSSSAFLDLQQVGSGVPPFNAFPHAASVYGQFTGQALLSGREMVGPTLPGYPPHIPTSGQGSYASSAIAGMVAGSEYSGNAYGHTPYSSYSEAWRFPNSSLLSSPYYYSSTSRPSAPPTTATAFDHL
Chain of Cytochrome P450 2C9 (P11712 whole entry): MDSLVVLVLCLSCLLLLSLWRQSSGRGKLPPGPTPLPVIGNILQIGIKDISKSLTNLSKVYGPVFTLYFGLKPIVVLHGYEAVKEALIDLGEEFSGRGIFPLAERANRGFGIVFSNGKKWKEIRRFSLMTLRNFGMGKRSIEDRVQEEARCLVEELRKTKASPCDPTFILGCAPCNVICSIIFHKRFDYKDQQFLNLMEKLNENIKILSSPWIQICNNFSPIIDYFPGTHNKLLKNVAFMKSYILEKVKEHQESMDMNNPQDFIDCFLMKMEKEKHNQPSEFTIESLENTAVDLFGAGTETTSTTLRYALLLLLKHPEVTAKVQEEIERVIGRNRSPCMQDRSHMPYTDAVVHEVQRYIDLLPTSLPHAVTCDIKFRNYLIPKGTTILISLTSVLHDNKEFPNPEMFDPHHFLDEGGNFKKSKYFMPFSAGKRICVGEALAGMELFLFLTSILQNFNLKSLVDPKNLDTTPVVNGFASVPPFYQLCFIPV
Chain of FAD-linked sulfhydryl oxidase ALR (P55789 whole entry): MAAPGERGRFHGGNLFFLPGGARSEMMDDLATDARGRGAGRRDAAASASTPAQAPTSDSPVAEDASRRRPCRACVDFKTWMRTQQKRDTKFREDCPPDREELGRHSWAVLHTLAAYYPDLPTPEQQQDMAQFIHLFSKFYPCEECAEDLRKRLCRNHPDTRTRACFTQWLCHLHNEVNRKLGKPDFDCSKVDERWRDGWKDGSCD
Chain of Cytochrome P450 3A4 (P08684 whole entry): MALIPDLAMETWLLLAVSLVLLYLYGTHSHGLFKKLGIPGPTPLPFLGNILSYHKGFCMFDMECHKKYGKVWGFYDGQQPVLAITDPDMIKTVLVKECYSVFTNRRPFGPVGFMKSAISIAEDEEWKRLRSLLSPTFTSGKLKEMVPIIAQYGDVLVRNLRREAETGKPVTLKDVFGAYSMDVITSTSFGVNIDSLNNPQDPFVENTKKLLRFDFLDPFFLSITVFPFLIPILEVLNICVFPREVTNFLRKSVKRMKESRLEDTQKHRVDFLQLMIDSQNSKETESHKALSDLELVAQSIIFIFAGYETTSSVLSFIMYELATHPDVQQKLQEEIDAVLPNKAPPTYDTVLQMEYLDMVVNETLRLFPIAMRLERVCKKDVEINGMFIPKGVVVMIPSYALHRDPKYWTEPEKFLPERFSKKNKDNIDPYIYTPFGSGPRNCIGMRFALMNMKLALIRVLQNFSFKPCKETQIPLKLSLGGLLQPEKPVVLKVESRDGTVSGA

Structure (SMILES): O=C1C2C3C=CC(CNS(=O)(=O)c4ccccc4[N+](=O)[O-])(O3)C2C(=O)N1c1ccccc1 (stereo not given)
- AC50 [1]: 25.5 µM (active)

Structure (SMILES): Cc1cc(C(=O)Nc2ccc(N3CCOCC3)cc2)c2ccccc2n1
- AC50 (Cytochrome P450 3A4): 15.8 µM (inconclusive)
- AC50 (Cytochrome P450 2C9): inconclusive
- IC50 (Coagulation factor XII): > 50 µM (inactive)

Structure (SMILES): C[C@@H]1CCCCO[C@H](CN(C)Cc2ccc(C(F)(F)F)cc2)[C@H](C)CN([C@H](C)CO)C(=O)c2cc(NS(=O)(=O)c3ccccc3)ccc2O1
- AC50 [2]: > 70 µM (inactive)
- AC50 (Paired box protein Pax-8): 6.88 µM (active)

Structure (SMILES): Oc1cc2c(cc1CN1CCN(c3ncccn3)CC1)OCO2
- EC50 (Mu-type opioid receptor): 92.5 µM (inactive)
- EC50 [3]: 106 nM (active)

Structure (SMILES): CC(=O)N1CCC(N2CCN(c3ccccc3F)CC2)CC1
- EC50 (Mu-type opioid receptor): 92.4 µM (inactive)
- EC50 [3]: 1160 nM (active)
- IC50 (Coagulation factor XII): > 50 µM (inactive)

Structure (SMILES): O=C(OCCC12CC3CC(CC(C3)C1)C2)c1ccc(NCc2cc(O)ccc2O)cc1
- AC50 [4]: 5.97 µM (active)
- AC50 [5]: 1.82 µM (active)
- AC50 [6]: 21.7 µM (active)

Structure (SMILES): C[C@H]1CCCCO[C@@H](CN(C)Cc2ccncc2)[C@@H](C)CN([C@@H](C)CO)C(=O)c2cc(NC(=O)Nc3ccc(C(F)(F)F)cc3)ccc2O1
- AC50 [2]: > 70 µM (inactive)
- AC50 (Paired box protein Pax-8): 7.3 µM (active)

Structure (SMILES): C=CCN1CCc2c(cc(O)c(O)c2Cl)C(c2ccccc2)C1 (stereo not given)
- EC50 (Mu-type opioid receptor): 92.4 µM (inactive)
- AC50 [7]: 4.74 µM (active)
- EC50 [3]: 203 nM (active)

Structure (SMILES): Cc1cc(N2CCCC2)ccc1NC(=O)COc1cccc(C(F)(F)F)c1
- IC50 [8]: > 122 µM (inactive)
